Reference: ChEMBL document CHEMBL1140679, “The identification of potent, selective, and bioavailable cathepsin S inhibitors” (Bioorg Med Chem Lett, 2007)

What was measured:
[1] = Half life in Sprague-Dawley rat; type: ADME, organism-based; settings: in vivo
Hepatocyte = test: Metabolic stability in rat hepatocytes after 2 hrs; type: ADME, cell-based
[2] = Bioavailability in Sprague-Dawley rat; type: ADME, organism-based; settings: in vivo
Cathepsin K [3] = molecular target: T1, Cathepsin K (Homo sapiens, UniProt P43235); test: Inhibition of human cathepsin K
T1 sequence (P43235 whole entry): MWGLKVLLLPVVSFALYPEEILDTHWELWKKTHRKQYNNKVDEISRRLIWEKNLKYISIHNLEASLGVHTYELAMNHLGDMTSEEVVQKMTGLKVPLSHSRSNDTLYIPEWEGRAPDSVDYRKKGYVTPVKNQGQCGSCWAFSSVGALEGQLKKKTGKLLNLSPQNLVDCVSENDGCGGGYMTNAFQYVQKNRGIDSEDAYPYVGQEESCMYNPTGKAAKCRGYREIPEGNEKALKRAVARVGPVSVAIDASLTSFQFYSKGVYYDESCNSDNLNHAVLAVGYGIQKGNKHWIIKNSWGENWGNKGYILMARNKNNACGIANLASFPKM

Procathepsin L [4] = molecular target: Procathepsin L (Homo sapiens, UniProt P07711); test: Inhibition of human cathepsin L
Chain of Procathepsin L (Homo sapiens, UniProt P07711) (P07711 whole entry): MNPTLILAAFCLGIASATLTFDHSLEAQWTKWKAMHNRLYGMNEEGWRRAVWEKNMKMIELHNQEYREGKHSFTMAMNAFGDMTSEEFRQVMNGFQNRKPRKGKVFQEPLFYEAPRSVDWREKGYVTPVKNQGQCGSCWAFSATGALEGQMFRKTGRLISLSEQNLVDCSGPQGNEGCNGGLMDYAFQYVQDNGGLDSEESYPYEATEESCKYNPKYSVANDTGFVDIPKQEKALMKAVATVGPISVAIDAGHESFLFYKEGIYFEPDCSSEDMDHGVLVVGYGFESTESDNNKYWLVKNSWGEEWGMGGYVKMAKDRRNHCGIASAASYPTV

Cathepsin K [5] = molecular target: T2, Cathepsin K (Mus musculus, UniProt P55097); test: Inhibition of mouse recombinant cathepsin K
T2 sequence (P55097 whole entry): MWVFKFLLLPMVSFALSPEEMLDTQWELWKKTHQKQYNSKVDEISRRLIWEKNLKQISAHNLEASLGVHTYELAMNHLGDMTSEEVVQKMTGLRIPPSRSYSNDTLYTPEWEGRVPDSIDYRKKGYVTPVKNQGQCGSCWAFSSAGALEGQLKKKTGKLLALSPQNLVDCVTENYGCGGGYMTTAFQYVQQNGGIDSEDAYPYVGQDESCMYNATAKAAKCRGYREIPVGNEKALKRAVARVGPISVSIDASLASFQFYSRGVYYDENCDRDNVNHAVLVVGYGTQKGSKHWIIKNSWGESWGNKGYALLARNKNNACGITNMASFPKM

Cathepsin S [6] = molecular target: Cathepsin S (Mus musculus, UniProt O70370); test: Inhibition of mouse recombinant cathepsin S
Chain of Cathepsin S (Mus musculus, UniProt O70370) (O70370 whole entry): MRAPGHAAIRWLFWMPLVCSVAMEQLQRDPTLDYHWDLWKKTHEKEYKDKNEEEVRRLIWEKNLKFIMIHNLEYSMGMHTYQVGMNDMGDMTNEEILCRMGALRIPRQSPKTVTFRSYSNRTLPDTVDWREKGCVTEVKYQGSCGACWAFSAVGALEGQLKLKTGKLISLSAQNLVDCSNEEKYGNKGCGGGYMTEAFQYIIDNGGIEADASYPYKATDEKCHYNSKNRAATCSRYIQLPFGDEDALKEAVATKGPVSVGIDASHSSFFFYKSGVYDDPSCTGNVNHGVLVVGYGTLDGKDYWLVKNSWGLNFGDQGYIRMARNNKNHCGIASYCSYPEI

[7] = Inhibition of antigen presentation in mouse B cells; type: functional, cell-based
Cathepsin S [8] = molecular target: Cathepsin S (Homo sapiens, UniProt P25774); test: Inhibition of human cathepsin S
Chain of Cathepsin S (Homo sapiens, UniProt P25774) (P25774 whole entry): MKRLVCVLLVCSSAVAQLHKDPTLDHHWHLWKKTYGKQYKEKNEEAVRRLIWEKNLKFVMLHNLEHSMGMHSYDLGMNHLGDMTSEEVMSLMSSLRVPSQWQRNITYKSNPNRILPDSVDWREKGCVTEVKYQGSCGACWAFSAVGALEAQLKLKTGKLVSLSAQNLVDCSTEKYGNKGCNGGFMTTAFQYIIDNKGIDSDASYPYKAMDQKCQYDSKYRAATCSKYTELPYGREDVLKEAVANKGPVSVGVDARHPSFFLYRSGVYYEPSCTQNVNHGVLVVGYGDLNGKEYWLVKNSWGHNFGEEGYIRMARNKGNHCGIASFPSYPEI

Cathepsin B [9] = molecular target: Cathepsin B (Rattus norvegicus, UniProt P00787); test: Inhibition of rat liver lysosomal cathepsin B
Chain of Cathepsin B (Rattus norvegicus, UniProt P00787) (P00787 whole entry): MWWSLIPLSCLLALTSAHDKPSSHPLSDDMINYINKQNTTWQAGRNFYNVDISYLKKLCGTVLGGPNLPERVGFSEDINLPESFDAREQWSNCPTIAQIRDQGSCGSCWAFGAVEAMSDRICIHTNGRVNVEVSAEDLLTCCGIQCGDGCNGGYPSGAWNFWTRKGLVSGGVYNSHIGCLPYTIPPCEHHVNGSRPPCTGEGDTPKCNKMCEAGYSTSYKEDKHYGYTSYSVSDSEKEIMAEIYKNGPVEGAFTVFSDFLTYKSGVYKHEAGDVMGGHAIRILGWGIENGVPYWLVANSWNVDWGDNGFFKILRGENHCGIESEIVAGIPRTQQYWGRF

[10] = Cmax in Sprague-Dawley rat; type: ADME, organism-based; settings: in vivo
Procathepsin L [11] = molecular target: T3, Procathepsin L (Mus musculus, UniProt P06797); test: Inhibition of mouse recombinant cathepsin L
T3 sequence (P06797 whole entry): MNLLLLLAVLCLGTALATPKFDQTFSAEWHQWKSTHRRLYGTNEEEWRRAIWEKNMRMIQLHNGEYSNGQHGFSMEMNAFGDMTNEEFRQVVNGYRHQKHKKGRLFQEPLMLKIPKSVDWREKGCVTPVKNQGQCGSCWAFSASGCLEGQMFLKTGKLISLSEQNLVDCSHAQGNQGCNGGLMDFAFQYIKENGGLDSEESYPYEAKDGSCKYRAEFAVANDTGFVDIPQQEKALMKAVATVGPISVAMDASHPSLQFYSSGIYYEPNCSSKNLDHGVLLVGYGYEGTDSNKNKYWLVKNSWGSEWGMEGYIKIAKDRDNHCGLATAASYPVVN

Mus musculus [12] = test: AUC (0 to 24 hrs) in C57BL/6 mouse at 50 mg/kg, po; type: ADME, organism-based, Plasma; parameters: time < 24 hr, dose 50 mg/kg, route oral; settings: in vivo
Mus musculus [13] = test: AUC (0 to 24 hrs) in C57BL/6 mouse at 5 mg/kg, po; type: ADME, organism-based, Plasma; parameters: time < 24 hr, dose 5 mg/kg, route oral; settings: in vivo
Procathepsin L [14] = molecular target: T4, Procathepsin L (Rattus norvegicus, UniProt P07154); test: Inhibition of rat liver lysosomal cathepsin L
T4 sequence (P07154 whole entry): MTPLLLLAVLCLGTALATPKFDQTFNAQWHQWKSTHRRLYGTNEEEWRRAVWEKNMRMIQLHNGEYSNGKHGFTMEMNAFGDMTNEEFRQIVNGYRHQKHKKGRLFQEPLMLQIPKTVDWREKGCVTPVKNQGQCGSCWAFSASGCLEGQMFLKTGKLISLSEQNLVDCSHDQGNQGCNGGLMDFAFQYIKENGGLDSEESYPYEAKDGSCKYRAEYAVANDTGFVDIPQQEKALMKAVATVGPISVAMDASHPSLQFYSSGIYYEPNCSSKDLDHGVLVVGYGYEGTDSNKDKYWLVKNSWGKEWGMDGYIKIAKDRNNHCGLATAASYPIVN

Cathepsin B [15] = molecular target: Cathepsin B (Mus musculus, UniProt P10605); test: Inhibition of mouse recombinant cathepsin B
Chain of Cathepsin B (Mus musculus, UniProt P10605) (P10605 whole entry): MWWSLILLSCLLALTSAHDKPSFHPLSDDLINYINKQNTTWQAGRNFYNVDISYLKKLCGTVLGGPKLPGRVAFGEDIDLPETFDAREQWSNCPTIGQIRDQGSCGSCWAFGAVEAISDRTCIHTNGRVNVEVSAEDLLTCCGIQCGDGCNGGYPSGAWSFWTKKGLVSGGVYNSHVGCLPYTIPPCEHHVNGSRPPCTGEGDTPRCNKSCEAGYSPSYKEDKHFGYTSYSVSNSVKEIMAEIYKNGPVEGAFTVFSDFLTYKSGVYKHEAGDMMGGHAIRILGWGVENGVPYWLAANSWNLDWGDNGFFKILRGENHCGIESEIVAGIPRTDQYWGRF

Cathepsin B [16] = molecular target: Cathepsin B (Homo sapiens, UniProt P07858); test: Inhibition of human cathepsin B
Cathepsin S [17] = molecular target: Cathepsin S (Rattus norvegicus, UniProt Q02765); test: Inhibition of rat spleen cathepsin S; type: tissue-based
Chain of Cathepsin S (Rattus norvegicus, UniProt Q02765) (Q02765 whole entry): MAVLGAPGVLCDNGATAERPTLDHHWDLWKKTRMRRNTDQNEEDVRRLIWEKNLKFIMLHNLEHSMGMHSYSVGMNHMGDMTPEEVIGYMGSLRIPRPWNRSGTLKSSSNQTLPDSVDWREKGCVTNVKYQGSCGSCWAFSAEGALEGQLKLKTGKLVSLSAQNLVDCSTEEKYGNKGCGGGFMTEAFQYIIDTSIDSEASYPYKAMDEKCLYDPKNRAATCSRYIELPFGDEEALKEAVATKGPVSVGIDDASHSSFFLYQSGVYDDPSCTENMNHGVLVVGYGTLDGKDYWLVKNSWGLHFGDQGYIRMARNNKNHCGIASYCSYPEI

Mus musculus [18] = test: AUC (0 to 24 hrs) in C57BL/6 mouse assessed as (R)-N-(1-cyanocyclopropyl)-3-(methylsulfonyl)-2-((S)-2,2,2-trifluoro-1-(4-fluorophenyl)ethylamino)propanamide levels at 50 mg/kg, po; type: ADME, organism-based, Plasma; parameters: time < 24 hr, dose 50 mg/kg, route oral; settings: in vivo
Mus musculus [19] = test: AUC (0 to 24 hrs) in C57BL/6 mouse assessed as (R)-N-(1-cyanocyclopropyl)-3-(methylsulfonyl)-2-((S)-2,2,2-trifluoro-1-(4-fluorophenyl)ethylamino)propanamide levels at 10 mg/kg, po; type: ADME, organism-based, Plasma; parameters: time < 24 hr, dose 10 mg/kg, route oral; settings: in vivo
Mus musculus [20] = test: Increase in p10 fragment accumulation in C57BL/6 mouse at 3 mg/kg/day for 5 days relative to control; type: functional
Mus musculus [21] = organism: Mus musculus; test: AUC (0 to 24 hrs) in C57BL/6 mouse assessed as (R)-N-(1-cyanocyclopropyl)-3-(methylsulfonyl)-2-((S)-2,2,2-trifluoro-1-(4-fluorophenyl)ethylamino)propanamide levels at 0.25 w/w % after 5 days; type: ADME, organism-based, Plasma; parameters: time < 24 hr; settings: in vivo
Mus musculus [22] = organism: Mus musculus; test: AUC (0 to 24 hrs) in C57BL/6 mouse assessed as (R)-N-(1-cyanocyclopropyl)-3-(methylsulfonyl)-2-((S)-2,2,2-trifluoro-1-(4-fluorophenyl)ethylamino)propanamide levels at 0.05 w/w % after 5 days; type: ADME, organism-based, Plasma; parameters: time < 24 hr; settings: in vivo
Mus musculus [23] = test: AUC (0 to 24 hrs) in C57BL/6 mouse assessed as (R)-N-(1-cyanocyclopropyl)-3-(methylsulfonyl)-2-((S)-2,2,2-trifluoro-1-(4-fluorophenyl)ethylamino)propanamide levels at 150 mg/kg, po; type: ADME, organism-based, Plasma; parameters: time < 24 hr, dose 150 mg/kg, route oral; settings: in vivo
Mus musculus [24] = organism: Mus musculus; test: AUC (0 to 24 hrs) in C57BL/6 mouse assessed as (R)-N-(1-cyanocyclopropyl)-3-(methylsulfonyl)-2-((S)-2,2,2-trifluoro-1-(4-fluorophenyl)ethylamino)propanamide levels at 0.01 w/w % after 5 days; type: ADME, organism-based, Plasma; parameters: time < 24 hr; settings: in vivo
Mus musculus [25] = organism: Mus musculus; test: Drug level in C57BL/6 mouse blood at 0.25 w/w %; type: ADME, organism-based; settings: in vivo, read-out: Drug uptake
Mus musculus [26] = organism: Mus musculus; test: Drug level in C57BL/6 mouse blood at 0.01 w/w %; type: ADME, organism-based; settings: in vivo, read-out: Drug uptake
Mus musculus [27] = organism: Mus musculus; test: Drug level in C57BL/6 mouse blood at 0.05 w/w %; type: ADME, organism-based; settings: in vivo, read-out: Drug uptake

Row | IC50 (Cathepsin K [3]) [nM] | IC50 (Procathepsin L [4]) [nM] | IC50 (Cathepsin K [5]) [nM] | IC50 (Cathepsin S [6]) [nM] | IC50 (Cathepsin S [8]) [nM] | IC50 (Cathepsin B [9]) [nM] | IC50 (Procathepsin L [11]) [nM] | IC50 (Procathepsin L [14]) [nM] | IC50 (Cathepsin B [15]) [nM] | IC50 (Cathepsin B [16]) [nM] | IC50 (Cathepsin S [17]) [nM] | Structure (SMILES) | further results
1 | 405 | 1010 | 1650 | 0.6 | 1.8 | 319 | 3040 | 3160 | 233 | 1100 | 426 | CS(=O)(=O)C[C@H](N[C@@H](c1ccc(F)cc1)C(F)(F)F)C(=O)NC1(C#N)CC1 | half-life [1]: 5.2 h; Stability (Hepatocyte): Stable; bioavailability [2]: 48%; IC50 [7]: 44 nM; Cmax [10]: 6.3 µM; AUC (Mus musculus [12]): 111 µM; AUC (Mus musculus [13]): 43 µM
2 | 1120 | > 10000 | 5840 | 96 | 729 | > 10000 | > 10000 | > 10000 | 6700 | 9720 | > 10000 | C[S+]([O-])C[C@H](N[C@@H](c1ccc(F)cc1)C(F)(F)F)C(=O)NC1(C#N)CC1 (some centres undefined) | AUC (Mus musculus [18]): 274 µM; AUC (Mus musculus [19]): 63 µM; Activity (Mus musculus [20]): 24; AUC (Mus musculus [21]): 87 µM; AUC (Mus musculus [22]): 31 µM; AUC (Mus musculus [23]): 750 µM; AUC (Mus musculus [24]): 7 µM; concentration (Mus musculus [25]): 16 µM; concentration (Mus musculus [26]): 1 µM; concentration (Mus musculus [27]): 6 µM
